Patent US10829506B2, “Amino- or ammonium-containing sulfonic acid, phosphonic acid and carboxylic acid derivatives and their medical use” (GRI Bio, Inc., priority 2011, dated 2020)

How the values were obtained:
BALB/cJW mice = experiment: Delayed-type hypersensitivity (DTH) reaction, mouse ear swelling; assay type: in vivo; conditions: oral; 1a 100 mg/kg (loading dose, then maintenance doses), dexamethasone 1.0 mg/kg once daily; 24 h after ovalbumin challenge
Method: The anti-inflammatory and anti-allergic effects of compound 1a was assessed in a mouse model of skin delayed-type hypersensitivity (DTH) reactions and compared to a vehicle control and to the reference drug dexamethasone. DTH reactions are antigen-specific cell-mediated immune responses, driven primarily by T helper type 1 (Th1) cells, similar to the tuberculin immunization response. The immune reaction induced by an ovalbumin challenge to animals previously sensitized with ovalbumin in Complete Freund's Adjuvant, is characterized by swelling (edema) at the site of challenge, e.g. the mouse ear. Dexamethasone, an anti-inflammatory steroid, reduces cell-mediated immune responses and was employed to validate the responsiveness of the assay to pharmacological treatment.
Female BALB/cJW mice were bred at the University of Lodz, Lodz, Poland and housed in groups of 8 in makrolon cages with a 12 h light-dark cycle. Mice were given free access to food (Agropol S. j., Motycz, Poland) and water.
Group size was n=8 mice unless otherwise stated. Test compound was freshly prepared before administration.
Sensitization: The protein antigen, ovalbumin, was reconstituted in PBS at 4 mg/ml. […] The emulsion was tested by putting a drop of emulsion onto PBS; if the emulsion remained as a light droplet on the PBS, the emulsion was deemed ready. […]
Challenge: On the sixth day after sensitization, DTH was elicited by challenging animals subcutaneously (gauge 30 needle, B. Braun Melsungen, Melsungen, Germany) in the left ears with 10 μL of a 1% suspension of heat-aggregated ovalbumin (HOVA) (100 μg ovalbumin per mouse). […] Ear thickness was measured with a precise spring-loaded caliper (Art. No, 7309, Mltutoyo, Kawasaki, Japan) before challenge, and 24 h after challenge. […]
To account for individual variability, the increase in right ear thickness, before and 24 h after administration of PBS, was subtracted from the HOVA-induced increase in left ear thickness. The increase in ear thickness was calculated by the difference between ear thickness before and 24 h after antigen challenge. […]

[1] = Body weight and toxic side-effects in the DTH study; assay type: in vivo, mice; conditions: oral 1 mg/kg once daily
Method: Three hours after the last dose, the antigen challenge was performed on the ears as described above. Dexamethasone was given at 1 mg/kg orally by gavage 3 h before sensitization and once daily with the final dose given 3 h prior to antigen challenge (a total of 7 administrations). All administrations were given in a volume of 10 mL/kg.
Such high dosing (overdose) is, however, not suitable for treatment of humans due to severe side effects of the corticosteroid and was only used to validate the responsiveness of the model.

RBL-2H3 cells [2] = experiment: Inhibition of mast cell degranulation (β-hexosaminidase release); assay type: cell-based, rat; conditions: RBL-2H3 cells sensitized with anti-DNP IgE, triggered with DNP-HSA, 1 h preincubation
From the text: Mast cells are key effector cells involved in allergic and inflammatory diseases, and the Rat Basophilic Leukemia clone 2H3 (RBL-2H3) cell line is a commonly used model of allergen dependent immune modulator release (degranulation) in mast cells. On their surface, they express the high affinity receptor for IgE (FcεRI). Upon binding of antigen-specific IgE to the receptor, cells become sensitized to the IgE specific antigen (allergen). When IgE-sensitized cells then encounter multivalent antigen, the antigen clusters IgE-FcεRI complexes and initiates a signal transduction cascade that leads to degranulation, that is, the release of inflammatory mediators, such as cytokines, eicosanoids, histamine and enzymes. The assay can be used as a screening method to identify immune-modulating compounds, in particular compounds useful in the medical management of allergic and inflammatory diseases and asthma, β-hexosaminidase was previously shown to be released with the same kinetics as histamine (Schwartz et al., J Immunology; 123:1445-1450 (1979)), thus offering a simple means to monitor degranulation. The RBL-2H3 cell line has been successfully used to identify compounds with anti-allergic activity (Choo et al. Planta Med., 69:518-522 (2003)).
Cell Culture: RBL-2H3 cells obtained from the German Collection of Microorganisms and Cell Cultures (ACC312) (Braunschweig, Germany) were maintained in 70% Minimum Essential Medium with Earle's Salts, 20% RPMI 1640 Medium, 10% FBS and 2 mM l-glutamine in 95% air/5% CO2 at 37° C. and routinely checked for mycoplasma contamination. Cells were passaged every 3-4 days; after washing cells once with 35 ml PBS cells were incubated 8 min with 5 ml 0.05% Trypsin-EDTA solution at 37° C. Cells were removed from the incubator, 15 ml culture medium was added and cells were resuspended by repeated pipetting.
Cell seeding: cells were harvested with Trypsin-EDTA as described and 50-100 μl cell suspension seeded Into Costar CellBind 24 well cluster plates (no. 3337). Plates were kept for 30 min at RT under the sterile hood before being transferred to the incubator. Cells were used within one or two days after seeding.
For sensitization, cells for immediate use were sensitized 6-12 h after plating; cells to be used the following day were sensitized 26-38 h after plating. Culture plates were removed from the incubator and checked for cell growth and contamination. The medium was discarded and cells were sensitized with anti-DNP IgE (0.4 μg/ml) in 0.4 ml culture medium overnight. Following overnight sensitization, cells were washed with 0.8 ml pre-warmed TyB and 0.38 ml test compound or vehicle control (supplemented or not with 1% FBS) were added to duplicate wells. Samples were adjusted to contain 1% vehicle for test compounds dissolved in organic solvents. Cells were incubated for 1 h at 37° C. At the end of the incubation period, cells were routinely stimulated with 20 μl DNP-HSA (2 μg/ml; final concentration 0.1 μg/ml) diluted in TyB and cells were incubated for 15 min at 37° C. Alternatively, cells were stimulated with 20 μl […] (final concentration 0.25 μM) or 20 nM […] (final concentration 0.25 μM), both in the absence or presence of 20 nM PMA (final concentration).
Plates were removed from the incubator and immediately centrifuged at 4° C. for 5 min at 250×g and transferred to an ice bath. Aliquots of supernatants, 25 μl, were transferred to 96-well plates. Remaining supernatant was aspirated from control wells and cells were lysed in […] lysis buffer for 5 min at RT on an orbital shaker at 450 rpm under non-sterile conditions. After lysis, 25 μl aliquots of lysates were transferred to 96-well plates.
MUG substrate solution, 100 μl, were added to supernatant and lysate samples and plates were incubated 30 min at 37° C. The reaction was terminated by addition of 150 μl stop solution. Fluorescence was measured at 365 nm excitation and 440 nm emission wavelengths. […]

RBL-2H3 cells [3] = experiment: Maximum tolerated concentration (cytotoxicity by lactate dehydrogenase release); assay type: cell-based, rat
From the text: A commercially available cytotoxicity test was used (Promega Cytotox-One cat. #67891).
The safety index (SI) of a test compound Is the ratio between the maximum tolerated concentration and the 1C50 and is used as a measure of the relative safety of the test compound.

phospho-Akt Ser473 = experiment: Inhibition of Akt phosphorylation on Ser473 in IgE sensitized, antigen stimulated RBL-2H3 cells; assay type: cell-based, rat; conditions: normalized to total Akt, IgE and antigen for 15 min
From the text: The mast cell degranulation assay using the RBL-2H3 cell line (see Example 27) was also used to determine the status of the PI3K/Akt axis. Activation of PI3K leads to production of PIP3 on the cytosolic side of the lipid bilayer. Akt is recruited to the PIP3 domain and subsequently activated by phosphorylation on residues Ser473 and Thr308. (Franke et al., Cell 81:727-736, (1995)). Once recruited to the membrane, it is phosphorylated and activated by other kinases (Hemmings, Science 275:628-630 (1997); Hemmings. Science 276:534 (1997); Downward, Science 279:673-674 (1998); Alessi et al., EMBO J. 15:6541-6551 (1996)). Western blotting of the phosphorylated Ser473 residue on Akt (phospho-Akt Ser473) is widely used to assess the level of activation of the PI3K/Akt axis.
All buffers and solutions used for the phosphor-Akt Ser473 assay were from Meso Scale Discovery. Tris Lysis Buffer consisted of 150 mM NaCl, 20 mM Tris, pH 7.5, 1 mM EDTA, 1 mM EGTA and 1% Triton-X-100. Complete Tris Lysis Buffer was prepared prior to use by addition of protease inhibitor, phosphatase inhibitors and PMSF. The 10x Tris Wash Buffer consisted of 500 mM Tris, pH 7.5, 1.5 M NaCl and 0.2% Tween-20. Blocker A was made up of bovine serum albumin in Tris Wash Buffer. Read Buffer T was used according to manufacturer's instructions. The Whole Cell Lysate Kits used were phospho-Akt Ser473 (K11100D. Lot K0011749) and total ERK½ (K11107D, Lot K0011698) as a loading control.
Protein assay: protein concentration was determined using the BCA (bicinchoninic acid) Protein Assay kit according to the manufacturer's instructions, Briefly, duplicate 10 μl samples of bovine serum albumin (BSA) standards, blank and lysates were incubated in a 96-well plate with 0.2 ml working reagent for 30 min at 37° C. Plates cooled to room temperature for 5 min and absorbance at 562 nm measured in a multi-mode plate reader. Protein concentrations were calculated using FlexStation 3 software (SoftMax Pro version 5.3). Protein concentration of lysates was determined from a standard curve (BSA) using a linear curve fit.
Phosphoprotein assay: protein phosphorylation was determined using the MULTI-SPOT® Assay System (Meso Scale Discovery), providing simultaneous detection of phosphorylated and total proteins. Briefly, capture antibodies against phosphorylated and total protein are patterned on distinct spots in the same well of 96-well plates. Sandwich immunoassay and electrochemiluminescence detection technology are combined to measure intensity of the emitted light from phosphorylated and total protein spots. For analysis of phosphor-Akt Ser473 was performed according to the manufacturer's instructions. The optimal amount of protein was determined at 5 μg lysate per well for ERK½ and 10 μg/well for phospho-Akt Ser473. Plates were blocked with 25 μl/well Blocker A for 1 h at room temperature with gentle agitation. During this time, the lysates were thawed and diluted to the desired protein concentration in complete Tris Lysis Buffer. Plates were washed four times in Tris Wash Buffer and 25 μl lysate per well added. Plates were incubated for 1-3 h at room temperature with agitation according to the manufacturer's recommendations. Plates were washed four times with Tris Wash Buffer, followed by addition of 25 μl/well of the respective detection antibody and incubation for 1 h at room temperature, with agitation. After a final four washes with Tris Wash Buffer 150 μl/well, Read Buffer T was added, and plates read on a SECTOR Imager 6000 plate reader.
The mean background signal from each plate was subtracted from averaged raw data. The amount of total protein phosphorylaled was expressed as % phosphoprotein according to the manufacturer's (Meso Scale Discovery) Instructions.
Levels of phospho-Akt Ser473 were determined in IgE sensitized and antigen stimulated cells after treatment without (positive control) or with 1, 5 and 25 μM test compound and normalized to levels of total Akt.

## C[C@@H]1C[C@H]2[C@@H]3CCC4=CC(=O)C=C[C@]4(C)[C@@]3(F)[C@@H](O)C[C@]2(C)[C@@]1(O)C(=O)CO [Dexamethasone, reference compound]
BALB/cJW mice
  Inhibition of mouse ear swelling (DTH response): 49%
[1]
  Loss in body weight: 4.4%

## CCCCCCCCCCCCCC[N+](C)(C)CCCP(=O)([O-])O [Compound 1c, 3-N,N-Dimethylmyristylammoniopropylphosphonic Acid]
RBL-2H3 cells [2]
  IC50: 2800 nM
RBL-2H3 cells [3]; highest concentration not causing cytotoxicity, LDH release
  MTC (maximum tolerated concentration): 200 µM
RBL-2H3 cells [3]; ratio between maximum tolerated concentration and IC50
  SI (safety index, ratio MTC/IC50): 71.4
phospho-Akt Ser473; 1 μM
  Level of phospho-Akt Ser473: 83.2 ± 17.3 % positive control
phospho-Akt Ser473; 5 μM
  Level of phospho-Akt Ser473: 11.7 ± 7.7 % positive control
phospho-Akt Ser473; 25 μM
  Level of phospho-Akt Ser473: 2.2 ± 1.4 % positive control
